Assay results as given in patent publication US10441601B2, “Method for treating schizophrenia” (St. Jude Children's Research Hospital, Inc., priority 2015, dated 2019).

Test system: TC projections to the ACx
Test: Whole-cell recordings of TC EPSCs in acute thalamocortical slices, bath application of antipsychotics / Drd2 antagonist
Type: cell-based, mouse
Description: Acute primary thalamocortical (TC) slices (400-μm thick) containing the left auditory cortex (ACx) and the left ventral part of the medial geniculate nuclei (MGv) of the thalamus were prepared as previously described^5. […] Primary TC slices were obtained from the left hemisphere by using a slicing angle of 15°.
Whole-cell recordings were obtained from cell bodies of layer (L) 3/4 thalamorecipient neurons in the ACx and thalamic-relay neurons in the MGv. Mice were chosen in a pseudorandom order, without the experimenter's prior knowledge of genotype or treatments. […] Voltage-clamp recordings were made using a Multiclamp 700B (Molecular Devices, Sunnyvale Calif.), digitized (10 kHz), and recorded using the pCLAMP 10.0 software (Molecular Devices, Sunnyvale Calif.). EPSCs were recorded at holding membrane potentials of −70 mV. In all experiments, membrane potentials were corrected for a liquid junction potential of −10 mV. TC excitatory postsynaptic currents (EPSCs) were evoked by current pulses (duration, 100 μs) delivered to the thalamic radiation via tungsten bipolar electrodes. Paired-pulse ratio (PPR) of TC and corticocortical (CC) EPSCs and the NMDAR/AMPAR ratio were measured as described previously^39. To ensure consistent access resistance of the recording electrode during long-term experiments, the peak amplitude of a brief (10-ms) hyperpolarizing test pulse (−5 mV) was monitored, which was given 250 ms after a stimulus. Access resistance (Ra) in recorded neurons was typically 10 to 25 MO.
Acute primary thalamocortical (TC) slices (400 µm thick) containing the auditory cortex (ACx) and the ventral part of the medial geniculate nuclei (MGv) of the thalamus were prepared as previously described^6. […] Primary TC slices were obtained from the left hemisphere by using a slicing angle of 15°.
Whole-cell recordings were obtained from cell bodies of layer (L) 3/4 thalamorecipient neurons in the ACx and thalamic-relay neurons in the MGv. […] Voltage-clamp recordings were made using a Multiclamp 700B, digitized (10 kHz), and recorded using the pCLAMP 10.0 software. EPSCs were recorded at holding membrane potentials of −70 mV. In all experiments, membrane potentials were corrected for a liquid junction potential of −10 mV. TC EPSCs were evoked by current pulses (duration, 100 […]s) delivered to the thalamic radiation via tungsten bipolar electrodes. To ensure consistent access resistance of the recording electrode during long-term experiments, the peak amplitude of a brief (10-ms) hyperpolarizing test pulse (−5 mV) was monitored given 250 ms after a stimulus. Access resistance (Ra) in recorded neurons was typically 10 to 25 MΩ.
In brief, the thalamic radiation of WT mice was stimulated to evoke TC EPSCs with a rise slope of approximately 100 pA/ms. The effect of the antipsychotic agent haloperidol on TC EPSC 30 minutes after its bath application was compared to the preapplication baseline TC EPSC (AH).

Compound | Effect on TC EPSCs, haloperidol alone (4-month-old miR-338+/− mice) | Further effect on TC EPSCs after L-741,626 (4-month-old miR-338+/− mice, haloperidol applied on top of L-741,626 20 nM) | Sensitivity of TC EPSCs to haloperidol (Df(16)1/+ mice 2 months or younger) | Sensitivity of TC projections to haloperidol (Df(16)1/+ mice, age dependence, haloperidol 1 μM) | Sensitivity of TC projections to haloperidol (Dgcr8+/− mice older than 3 months) | Sensitivity of TC projections to haloperidol (WT mice, 1.5 to 7 months) | Sensitivity of TC projections to haloperidol, age dependence (miR-338+/− mice, 1.5 to 4 months) | Effect on deficit of TC EPSCs (smaller TC EPSCs vs WT) (older Df(16)1/+ mice, haloperidol 1 μM, 30 minutes after bath application) | Sensitivity of TC projections to haloperidol (younger Dgcr8+/− mice) | Effect on TC EPSCs (4-month-old miR-338+/− mice, L-741,626 20 nM)
O=C(CCCN1CCC(O)(c2ccc(Cl)cc2)CC1)c1ccc(F)cc1 [haloperidol] | increased TC EPSCs | not further elevated | not sensitive to haloperidol | became sensitive to haloperidol (1 µM) only at 3 months of age | sensitive to haloperidol at older than 3 months of age | not haloperidol-sensitive at any age | sensitive to haloperidol in an age-independent manner | rescued that deficit | not sensitive to haloperidol | –
OC1(c2ccc(Cl)cc2)CCN(Cc2c[nH]c3ccccc23)CC1 [L-741,626] | – | – | – | – | – | – | – | – | – | substantially increased
